ChEMBL document CHEMBL4715766, “Systemic structure-activity relationship study of phenyl polyyne diols as potential chemopreventive agents” (Bioorg Med Chem Lett, 2016)

Experiments:
[1] = Chemopreventive index, ratio of IC50 for mouse Hepa-1c1c7 cells to drug level required to double NADPH:quinone reductase activity in mouse Hepa-1c1c7 cells
[2] = target: NAD(P)H dehydrogenase [quinone] 1 (Mus musculus) (UniProt Q64669); details: Hepa1c1c7, filed as activator
Description: Induction of quinone reductase activity in mouse Hepa1c1c7 cells

[3] = Cytotoxicity against mouse Hepa1c1c7 cells; assay type: cell-based; details: Hepa-1c1c7

NAD(P)H dehydrogenase [quinone] 1 (Mus musculus), sequence (Q64669 whole entry): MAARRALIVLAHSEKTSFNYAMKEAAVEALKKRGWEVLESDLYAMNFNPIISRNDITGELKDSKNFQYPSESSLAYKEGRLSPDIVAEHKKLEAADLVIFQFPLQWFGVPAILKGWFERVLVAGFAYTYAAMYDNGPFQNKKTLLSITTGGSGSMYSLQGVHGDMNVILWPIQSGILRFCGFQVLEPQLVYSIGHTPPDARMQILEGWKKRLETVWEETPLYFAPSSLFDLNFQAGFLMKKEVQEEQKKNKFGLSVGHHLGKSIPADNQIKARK

Row | Compound | Ratio [1] | CD [2] [µM] | IC50 [3] [µM]
1 | C[S+]([O-])CCCCN=C=S (centres undefined) [SULFORAPHANE] | 29.5 | 0.5 | 
2 | CCCCCC(O)C#CC#CC(O)c1ccc2c(c1)OCO2 (centres undefined) | >28.2 |  | > 50
